Numbers after ± are expanded uncertainties.
What was measured:
[1] = 100 kPa, Liquid; for viscosity: Concentric cylinders viscometry; for mass density: Vibrating tube method
[2] = xn = mol fraction of the nth substance listed; settings: 100 kPa, Liquid, x2 = 0; for viscosity: Concentric cylinders viscometry; for mass density: Vibrating tube method

Structure (SMILES) | viscosity ([1]; 293.15 K) | mass density ([1]; 293.15 K) | viscosity ([1]; 298.15 K) | mass density ([1]; 298.15 K) | viscosity ([1]; 303.15 K) | mass density ([1]; 303.15 K) | viscosity ([1]; 308.15 K) | mass density ([1]; 308.15 K) | viscosity ([1]; 313.15 K) | mass density ([1]; 313.15 K) | viscosity ([1]; 318.15 K) | mass density ([1]; 318.15 K) | viscosity ([1]; 323.15 K) | mass density ([1]; 323.15 K) | viscosity ([2]; 293.15 K) | mass density ([2]; 293.15 K) | viscosity ([2]; 298.15 K) | mass density ([2]; 298.15 K) | viscosity ([2]; 303.15 K) | mass density ([2]; 303.15 K) | other results
CCC(C)O (stereo not drawn) [butan-2-ol] | 3.67 ± 0.15 mPa·s | 806.7 ± 1 kg/m3 | 3.04 ± 0.12 mPa·s | 802.7 ± 1 kg/m3 | 2.54 ± 0.1 mPa·s | 798.4 ± 1 kg/m3 | 2.13 ± 0.09 mPa·s | 794.1 ± 1 kg/m3 | 1.8 ± 0.07 mPa·s | 789.8 ± 1 kg/m3 | 1.54 ± 0.06 mPa·s | 785.2 ± 1 kg/m3 | 1.33 ± 0.05 mPa·s | 780.6 ± 1 kg/m3 |  |  |  |  |  |  | 
CC(C)O [propan-2-ol] | 2.42 ± 0.1 mPa·s | 785.4 ± 1 kg/m3 | 2.08 ± 0.08 mPa·s | 781.1 ± 1 kg/m3 | 1.8 ± 0.07 mPa·s | 776.8 ± 1 kg/m3 | 1.56 ± 0.06 mPa·s | 772.4 ± 1 kg/m3 | 1.36 ± 0.06 mPa·s | 768 ± 1 kg/m3 | 1.19 ± 0.05 mPa·s | 763.4 ± 1 kg/m3 | 1.05 ± 0.04 mPa·s | 758.8 ± 1 kg/m3 |  |  |  |  |  |  | 
CCC(C)O (stereo not drawn) [butan-2-ol] + O=Cc1ccccc1 |  |  |  |  |  |  |  |  |  |  |  |  |  |  | 3.67 ± 0.15 mPa·s | 806.7 ± 1 kg/m3 | 3.04 ± 0.12 mPa·s | 802.7 ± 1 kg/m3 | 2.54 ± 0.1 mPa·s | 798.4 ± 1 kg/m3 | viscosity ([2]; 308.15 K): 2.13 ± 0.09 mPa·s; mass density ([2]; 308.15 K): 794.1 ± 1 kg/m3; viscosity ([2]; 313.15 K): 1.8 ± 0.07 mPa·s; mass density ([2]; 313.15 K): 789.8 ± 1 kg/m3; viscosity ([2]; 318.15 K): 1.54 ± 0.06 mPa·s; mass density ([2]; 318.15 K): 785.2 ± 1 kg/m3; viscosity ([2]; 323.15 K): 1.33 ± 0.05 mPa·s; mass density ([2]; 323.15 K): 780.6 ± 1 kg/m3
O=Cc1ccccc1 [benzaldehyde] | 1.52 ± 0.06 mPa·s | 1046.3 ± 1 kg/m3 | 1.41 ± 0.06 mPa·s | 1041.7 ± 1 kg/m3 | 1.31 ± 0.05 mPa·s | 1037.1 ± 1 kg/m3 | 1.22 ± 0.05 mPa·s | 1032.4 ± 1 kg/m3 | 1.15 ± 0.05 mPa·s | 1027.9 ± 1 kg/m3 | 1.09 ± 0.04 mPa·s | 1023.4 ± 1 kg/m3 | 1.03 ± 0.04 mPa·s | 1019.1 ± 1 kg/m3 |  |  |  |  |  |  | 
CCCC(C)O (stereo not drawn) [pentan-2-ol] + O=Cc1ccccc1 |  |  |  |  |  |  |  |  |  |  |  |  |  |  | 3.97 ± 0.16 mPa·s | 809.3 ± 1 kg/m3 | 3.32 ± 0.13 mPa·s | 805.3 ± 1 kg/m3 | 2.81 ± 0.11 mPa·s | 801.2 ± 1 kg/m3 | viscosity ([2]; 308.15 K): 2.37 ± 0.1 mPa·s; mass density ([2]; 308.15 K): 797 ± 1 kg/m3; viscosity ([2]; 313.15 K): 1.99 ± 0.08 mPa·s; mass density ([2]; 313.15 K): 792.7 ± 1 kg/m3; viscosity ([2]; 318.15 K): 1.66 ± 0.07 mPa·s; mass density ([2]; 318.15 K): 788.4 ± 1 kg/m3; viscosity ([2]; 323.15 K): 1.39 ± 0.06 mPa·s; mass density ([2]; 323.15 K): 784 ± 1 kg/m3
CCCC(C)O (stereo not drawn) [pentan-2-ol] | 3.97 ± 0.16 mPa·s | 809.3 ± 1 kg/m3 | 3.32 ± 0.13 mPa·s | 805.3 ± 1 kg/m3 | 2.81 ± 0.11 mPa·s | 801.2 ± 1 kg/m3 | 2.37 ± 0.1 mPa·s | 797 ± 1 kg/m3 | 1.99 ± 0.08 mPa·s | 792.7 ± 1 kg/m3 | 1.66 ± 0.07 mPa·s | 788.4 ± 1 kg/m3 | 1.39 ± 0.06 mPa·s | 784 ± 1 kg/m3 |  |  |  |  |  |  | 
CC(C)O [propan-2-ol] + O=Cc1ccccc1 |  |  |  |  |  |  |  |  |  |  |  |  |  |  | 2.42 ± 0.1 mPa·s | 785.4 ± 1 kg/m3 | 2.08 ± 0.08 mPa·s | 781.1 ± 1 kg/m3 | 1.8 ± 0.07 mPa·s | 776.8 ± 1 kg/m3 | viscosity ([2]; 308.15 K): 1.56 ± 0.06 mPa·s; mass density ([2]; 308.15 K): 772.4 ± 1 kg/m3; viscosity ([2]; 313.15 K): 1.36 ± 0.06 mPa·s; mass density ([2]; 313.15 K): 768 ± 1 kg/m3; viscosity ([2]; 318.15 K): 1.19 ± 0.05 mPa·s; mass density ([2]; 318.15 K): 763.4 ± 1 kg/m3; viscosity ([2]; 323.15 K): 1.05 ± 0.04 mPa·s; mass density ([2]; 323.15 K): 758.8 ± 1 kg/m3

— the NIST ThermoML archive (doi:10.1021/acs.jced.7b00335)
